Experimental data published in paper PMC9161086, “Water-Soluble Trichogin GA IV-Derived Peptaibols Protect Tomato Plants From Botrytis cinerea Infection With Limited Impact on Plant Defenses” (Frontiers in Plant Science, 2022).

What was measured:
[1] = system: methicillin-resistant human pathogens; conditions: ref De Zotti et al., 2009; cited from earlier work
[2] = set-up: method as in De Zotti et al., 2009; conditions: ref De Zotti et al., 2009; cited from earlier work
[3] = Hydrophilicity evaluated from HPLC retention times; format: physicochemical; conditions: comparison to native Trichogin GA IV, C18 column Phenomenex Jupiter 5 μm, 300 Å, 250 × 4.5 mm, gradient 60%–100% B in 30 min, A H2O/CH3CN 9:1 0.05% TFA, B CH3CN/H2O 9:1 0.05% TFA
[4] = system: Solanum lycopersicum cv. Micro-Tom leaves; test: ROS detection with H2DCFDA on tomato leaves; conditions: 50 μM in water, 10-μl droplets on abaxial surface of detached Micro-Tom leaves; 24 and 48 h; H2DCFDA fluorescence microscopy

For “1-octanoyl-Aib-Gly-Leu-Aib-Gly-Gly-Leu-Aib-Gly-Ile-Lol [Trichogin GA IV, 11-residue lipopeptaibol naturally produced by Trichoderma longibrachiatum]”, the “Antibacterial activity against methicillin-resistant human pathogens” value [1] is listed as “antibacterial activity” and the Resistance to proteolysis [2] is listed as “remarkable resistance to proteolysis”.

In the case of `CCCCCCCC(=O)NC(C)(C)C(=O)NCC(=O)N[C@@H](CC(C)C)C(=O)NC(C)(C)C(=O)N[C@@H](CCCCN)C(=O)NC(C)(C)C(=O)N[C@@H](CC(C)C)C(=O)NC(C)(C)C(=O)NCC(=O)N[C@H](C(=O)N[C@@H](CC(C)C)C(N)=O)[C@@H](C)CC` [Pep 6r], the Hydrophilicity [3] is reported as “+” and the “ROS production on tomato leaves” value [4] is reported as “only Pep 4-treated leaves showed ROS production”.
